# Source: PMC12006963, “Application of Deuterium in an M1 Positive Allosteric Modulator Back-Up Program: The Discovery of VU6045422” (ACS Chemical Neuroscience, 2025)
# How the values were obtained:
# rM2-5 = assay: Muscarinic selectivity, rat M2-5; type: cell-based
# [1] = Predicted hepatic clearance, hepatic microsomes (dog); type: in vitro ADME
# Procedure: After a 5 min preincubation, the reaction was initiated by the addition of NADPH (1 mM). At selected time intervals (0, 3, 7, 15, 25, and 45 min), aliquots were taken and subsequently placed into a 96-well plate containing cold acetonitrile with internal standard (50 ng/mL carbamazepine). Plates were then centrifuged at 3000 rcf (4 °C) for 10 min, and the supernatant was transferred to a separate 96-well plate and diluted 1:1 with water for LC/MS/MS analysis. The in vitro half-life ( 1/2, min, Eq. 1), intrinsic clearance (CLint, mL/min/kg, Eq. 2), and subsequent predicted hepatic clearance (CLhep, mL/min/kg, Eq. 3) was determined employing the […]
# where k represents the slope from linear regression analysis of the natural log percent remaining of a test compound as a function of incubation time […]
# (2) CLint = in vitroT1/2 x mg microsomes x gram liver x kg body wt ascale-up factors: of 20 (human) or 45 (rat) […]
# where Qh (hepatic blood flow, mL/min/kg) is 21 (human) or 70 (rat).
# LC/MS/MS Bioanalysis of Samples from Plasma Protein Binding and Intrinsic Clearance […]
# Samples were analyzed on a Thermo Electron TSQ Quantum Ultra triple quad mass spectrometer (San Jose, CA) via electrospray ionization (ESI) with two Themo Electron Accella pumps (San Jose, CA), and a Leap Technologies CTC PAL autosampler (Carrboro, NC). Analytes were separated by gradient elution on a dual column system with two Thermo Hypersil Gold (2.1 x 30 mm, 1.9 µm) columns (San Jose, CA) thermostated at 40 °C. HPLC mobile phase A was 0.1% formic acid in water and mobile phase B was 0.1% formic acid in acetonitrile. The gradient started […]
# for 0.2 min; returned to 10% B in 0.1 min. The total run time was 1.3 min and the HPLC flow rate was 0.8 mL/min. While pump 1 ran the gradient method, pump 2 equilibrated the alternate column isocratically at 10% B. Compound optimization, data collection, and processing was performed using Thermo Electron's QuickQuan software (v2.3) and Xcalibur (v2.0.7 SP1).
# In vivo DMPK experimental:
# Determination of brain to plasma ratio: […]
# recognition memory = assay: Novel object recognition (NOR) test; type: in vivo, rat; conditions: PO; for minimum effective dose (MED) in NOR: male Sprague-Dawley rats, 3 given 2 h, 5 given 1 h before exposure, memory assessed 24 h later; for effect on recognition memory in NOR: rats, 3 at 1, 3, 10 mg/kg, 5 at 0.3, 1, 3 mg/kg
# Procedure: Figure 4 Novel object recognition (NOR) test in rats with M1 PAMs 3 and 5. […] Minimum effective dose (MED) is 10 mg/kg. […] Minimum effective dose (MED) is 1 mg/kg. N = 13–18/group of male Sprague-Dawley rats. Analysis of variance (ANOVA) *p < 0.05; **p < 0.01 Dunnett posthoc test.
# Rats were habituated for 10 min for 2 consecutive days in an empty novel object recognition (NOR) arena consisting of dark-colored plexiglass box (40 × 64 × 33 cm3). On day 3 rats were administered vehicle, M1 PAM 3 (1-10 mg/kg, p.o.., 10 mL/kg, n = 13-18), or M 1 PAM 5 (0.3-3 mg/kg, p.o.., 10 mL/kg, n = 16-18) and returned to their home cage for 60 min (M 1 PAM 5) or 2 hr (M1 PAM 3. Rats were then placed in the NOR arena containing two identical objects for 10 min. Following the exposure period, rats were placed back into their home cages for 24 h. The rats were then returned to the arena in which one of the previously exposed (familiar) objects was replaced by a novel object and were video recorded for 5 min while they explored the two objects.
# Time spent exploring each object was scored by an observer blinded to the experimental conditions and the recognition index was calculated as [(time spent exploring novel object) – (time spent exploring familiar object)]/total time exploring objects. […]
# C18, 2.1 x 30 mm, 2.6 um. Gradient conditions: 7% to 95% CH3CN in H2O (0.1% TFA) over 1.6
# [2] = In vivo IV/PO pharmacokinetics, dog; parameters: species or system dog (beagle or mongrel); conditions: for clearance / Vd / half-life: beagle or mongrel, plasma, 1 mg/kg; for clearance: dose iv/po mg/kg: 1 1/3, 5 1/5, read-out: CLp; for Vd: dose iv/po mg/kg: 1 1/3, 5 1/5, read-out: Vss; for half-life: dose iv/po mg/kg: 1 1/3, 5 1/5, read-out: elimination t1/2 (converted); for F (%) po: dose iv/po mg/kg: 1 1/3, 5 1/5
# [3] = In vivo IV/PO pharmacokinetics, NHP; conditions: NHP (cyno), dose iv/po mg/kg: 1 1/3, 5 1/5; for clearance / Vd / half-life: cynomolgus monkey, plasma, 1 mg/kg; for clearance: read-out: CLp; for Vd: read-out: Vss; for half-life: read-out: elimination t1/2 (converted)
SMILES,EC50 (rM2-5) [µM],Predicted CLhep [1] [mL/min/kg],minimum effective dose (MED) in NOR (recognition memory) [mg/kg],effect on recognition memory in NOR (recognition memory),clearance [2] [mL/min/kg],Vd [2] [L/kg],half-life [2] [h],F (%) po [2] [%],F (%) po [3] [%],clearance [3] [mL/min/kg],Vd [3] [L/kg],half-life [3] [h]
[2H]C1([2H])c2ncccc2C(=O)N1Cc1c(F)cc(-c2cccc3nn(C)cc23)cc1F [compound 3],> 30,14.4,10,dose-dependently enhanced the recognition memory,,,,,,,,
Cn1cc2c(-c3cc(F)c(CN4Cc5ncccc5C4=O)c(F)c3)cccc2n1 [compound 1],,5.5,,,4,2.1,7.5,100,59,3.3,0.9,4.3
[2H]C1([2H])c2ncccc2C(=O)N1Cc1c(F)cc(-c2cccc3nn(C([2H])([2H])[2H])cc23)cc1F [compound 5],> 30,8.8,1,dose-dependently enhanced recognition memory,2.6,2,10,85,64,4,1.1,4.6
